# Results taken from ChEMBL document CHEMBL1201862, “PubChem BioAssay data set” (2004).
#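 The compound was tested at five concentrations on cells cultured in 96-well plates, with a 48-hour exposure period. Here, GI50 denotes the concentration required for 50% inhibition of growth.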 Active and inactive are the calls of the source. No stated cut-off is given here; in the data, active = GI50 up to about 1.1 µM and inactive = higher.
# Key:
# Assay in all cases: NCI anticancer screen, dose series, 48 h
# SNB-78 = test system: SNB-78
# M19-MEL = test system: M19-MEL
# DMS-273 = test system: DMS-273
# DLD-1 = test system: DLD-1
# XF498 = test system: XF498
# HOP-18 = test system: HOP-18
# LXFL 529 = test system: LXFL 529
# DMS-114 = test system: DMS-114
# RXF 631 = test system: RXF 631
SMILES,GI50 (SNB-78),GI50 (M19-MEL),GI50 (DMS-273),GI50 (DLD-1),GI50 (XF498),GI50 (HOP-18),GI50 (LXFL 529),GI50 (DMS-114),GI50 (RXF 631)
COc1ccc(CC2C(=O)NC(C)C(=O)N(C)C3Cc4ccc(cc4)Oc4cc(ccc4O)CC(C(=O)NC(C)C(=O)NC(C)C(=O)N2C)N(C)C3=O)cc1 (stereo not given),0.0175 µM (active),0.0175 µM (active),0.0175 µM (active),0.0469 µM (active),0.0175 µM (active),,,,
NC1CCCCC1.O=C(O)C1(P(=O)(O)O)CC1,> 100 µM (inactive),> 100 µM (inactive),> 100 µM (inactive),> 100 µM (inactive),> 100 µM (inactive),> 100 µM (inactive),> 100 µM (inactive),> 100 µM (inactive),
CC(=O)OC1COC(n2c(=S)n(-c3ccc(C)cc3)c(=O)c3ccccc32)C(OC(C)=O)C1OC(C)=O (stereo not given),> 100 µM (inactive),> 100 µM (inactive),> 100 µM (inactive),> 100 µM (inactive),> 100 µM (inactive),> 100 µM (inactive),58.3 µM (inactive),> 100 µM (inactive),68.9 µM (inactive)
O=S(=O)(N/N=C/c1cccc(/C=N/NS(=O)(=O)c2ccccc2)c1)c1ccccc1,> 100 µM (inactive),> 100 µM (inactive),> 100 µM (inactive),81.5 µM (inactive),,91 µM (inactive),39 µM (inactive),47.4 µM (inactive),73.8 µM (inactive)
Cc1ccccc1NC(=O)C(=O)Cc1nc2ccccc2s1,92.5 µM (inactive),> 100 µM (inactive),> 100 µM (inactive),> 100 µM (inactive),> 100 µM (inactive),> 100 µM (inactive),> 100 µM (inactive),> 100 µM (inactive),> 100 µM (inactive)
COC(=O)c1ccccc1N1C(=O)Cc2ccccc2C1=O,> 100 µM (inactive),> 100 µM (inactive),> 100 µM (inactive),,,,> 100 µM (inactive),> 100 µM (inactive),
Cc1[nH]c2ccccc2c1-c1n[nH]c(=O)c2ccccc12,46.8 µM (inactive),29 µM (inactive),8.79 µM (inactive),15.9 µM (inactive),27.1 µM (inactive),,21.6 µM (inactive),14.8 µM (inactive),13 µM (inactive)
CC(C)OC(=O)c1cccnc1/C=N/O,> 100 µM (inactive),> 100 µM (inactive),> 100 µM (inactive),> 100 µM (inactive),> 100 µM (inactive),,> 100 µM (inactive),> 100 µM (inactive),
Cc1[nH]c2ccccc2c1C1Cc2ccccc2N1C(=O)/C(Cl)=C/c1ccccc1 (stereo not given),23.3 µM (inactive),> 100 µM (inactive),> 100 µM (inactive),74.3 µM (inactive),12.4 µM (inactive),66.2 µM (inactive),> 100 µM (inactive),> 20.9 µM (inactive),> 100 µM (inactive)
CCC1CCCCN1CC(C(C)=O)C(c1ccccc1)c1c(O)c2ccccc2oc1=O (stereo not given),> 100 µM (inactive),> 100 µM (inactive),> 100 µM (inactive),> 100 µM (inactive),> 100 µM (inactive),,,> 100 µM (inactive),> 100 µM (inactive)
N#C/C(=C1\SC(C(N)=O)=C(N)N1c1ccccc1)c1nc2ccccc2[nH]1,44.4 µM (inactive),> 100 µM (inactive),> 100 µM (inactive),> 100 µM (inactive),> 100 µM (inactive),,> 100 µM (inactive),> 100 µM (inactive),
O=c1c(C(c2ccc([N+](=O)[O-])cc2)c2c(O)c3ccccc3n(-c3ccccc3)c2=O)c(O)c2ccccc2n1-c1ccccc1,21.7 µM (inactive),32.5 µM (inactive),22.9 µM (inactive),6.41 µM (inactive),19.7 µM (inactive),2.4 µM (inactive),8.05 µM (inactive),20.3 µM (inactive),14.7 µM (inactive)
CNC(C)(C)Cc1ccc(Cl)cc1,,> 100 µM (inactive),,> 100 µM (inactive),34.7 µM (inactive),,> 100 µM (inactive),> 100 µM (inactive),
NC(=O)C(=O)C1C(=O)N(c2ccccc2)N=C1N (stereo not given),> 100 µM (inactive),,> 100 µM (inactive),> 100 µM (inactive),> 100 µM (inactive),,> 100 µM (inactive),,
CC(C)C(C(=O)O)N(CC1(O)OCC(O)C(O)C1O)N=O (stereo not given),> 100 µM (inactive),> 100 µM (inactive),> 100 µM (inactive),> 100 µM (inactive),> 100 µM (inactive),,> 100 µM (inactive),> 100 µM (inactive),> 100 µM (inactive)
O=C(CCc1ccccc1)NS(=O)(=O)c1ccccc1,,> 100 µM (inactive),,> 100 µM (inactive),> 100 µM (inactive),> 100 µM (inactive),> 100 µM (inactive),> 100 µM (inactive),> 100 µM (inactive)
CSc1nc2c(nc(N)n2C2OC(COC(C)=O)C(OC(C)=O)C(OC(C)=O)C2OC(C)=O)c(=O)n1C (stereo not given),> 100 µM (inactive),,,> 100 µM (inactive),> 100 µM (inactive),> 100 µM (inactive),> 100 µM (inactive),> 100 µM (inactive),> 100 µM (inactive)
Cc1cc(N(CCC#N)S(=O)(=O)c2ccccc2)ccc1C=O,> 100 µM (inactive),,> 100 µM (inactive),> 100 µM (inactive),,> 100 µM (inactive),> 100 µM (inactive),> 100 µM (inactive),> 100 µM (inactive)
O=C(CC(=O)c1cccc2ccccc12)C(=O)Nc1nccs1,> 100 µM (inactive),> 100 µM (inactive),> 100 µM (inactive),> 100 µM (inactive),,> 100 µM (inactive),> 100 µM (inactive),,
CN(C)CC1(C)CC/C(=C\c2ccc3c(c2)OCO3)C1=O (stereo not given),> 100 µM (inactive),> 100 µM (inactive),> 100 µM (inactive),> 100 µM (inactive),> 100 µM (inactive),> 100 µM (inactive),> 100 µM (inactive),57.4 µM (inactive),
Clc1ccc2c(c1)-c1c3c(nn1-c1ccccc1)-c1ccccc1SC3O2 (stereo not given),> 100 µM (inactive),> 100 µM (inactive),> 100 µM (inactive),,> 100 µM (inactive),> 100 µM (inactive),> 100 µM (inactive),56.1 µM (inactive),
CC1C=CC(C)C2(O)C(=O)NC(O)C12 (stereo not given),> 100 µM (inactive),> 100 µM (inactive),> 100 µM (inactive),> 100 µM (inactive),,> 100 µM (inactive),> 100 µM (inactive),> 100 µM (inactive),> 100 µM (inactive)
NC(N)=NN/C(=C1/N=c2ccc([N+](=O)[O-])cc2=NC1=O)C(O)c1ccco1 (stereo not given),> 100 µM (inactive),> 100 µM (inactive),> 100 µM (inactive),> 100 µM (inactive),> 100 µM (inactive),> 100 µM (inactive),92.7 µM (inactive),27.5 µM (inactive),
c1ccc2c(NCCCCCCNc3c4ccccc4nc4ccccc34)c3ccccc3nc2c1,0.498 µM (active),1.09 µM (active),0.0214 µM (active),0.291 µM (active),1.41 µM (inactive),2.91 µM (inactive),0.155 µM (active),0.366 µM (active),
CN(C)CCN1C(=O)c2cccc3cc(N)cc(c23)C1=O [AMONAFIDE],,4.19 µM (inactive),2.07 µM (inactive),5.38 µM (inactive),0.946 µM (active),5.2 µM (inactive),,4.21 µM (inactive),
C[C@H](N)C(=O)N[C@@H]1[C@H]2C(=C(O)C[C@@H](O)[C@@H]2O)C(=O)O[C@]1(C)C(Cl)Cl [BACTOBOLIN],0.281 µM (active),0.232 µM (active),0.327 µM (active),0.24 µM (active),0.0938 µM (active),0.57 µM (active),0.108 µM (active),0.178 µM (active),0.289 µM (active)
